Literature values in patent US20050148561A1, “Novel triterpene derivatives, preparation thereof and use thereof” (Panacos Pharmaceuticals, Inc., priority 2003, published 2005).
pEC50: −log10 of the molar value. Like-named read-outs stand apart in the source and are kept apart here.

Tested on: HIV-1

Q: For CC(=O)[C@@H]1CC[C@]2(C(=O)O)CC[C@]3(C)[C@H](CC[C@@H]4[C@@]5(C)CC[C@H](O)C(C)(C)[C@@H]5CC[C@]43C)[C@@H]12 [platanic acid], which T.I. (H9 lymphocyte cells) is on record?
A: 14

Q: What about the pEC50 (H9 lymphocyte cells, read-out: EC50, inhibitory activity against HIV-1 replication) of the same molecule?
A: 5.19

Q: Which T.I. (H9 lymphocyte cells) does the source give for CC(C)[C@@H]1CC[C@]2(C(=O)O)CC[C@]3(C)C(CCC4[C@@]5(C)CC[C@H](O)C(C)(C)C5CC[C@]43C)C12 (stereo partly shown) [dihydrobetulinic acid] here?
A: 14

Q: And the pEC50 (unit inferred, read-out: EC50, anti-HIV activity)?
A: 6.05
